Measured values: patent US12723024B2 (priority 2021, dated 2026)
Structures can show the parent of a compound that is named as a salt. Where two headings read alike, the source gives them in different places.

Assays:
[1] = Solubility of diastereomeric salts in solvents; format: physicochemical; conditions: 20 °C, read-out: Solubility @ 20-30° C.
From the text: Thus, in another highly preferred embodiment, DCM is used in step c).

[2] = Salt screening (slurry crystallization); format: physicochemical; design: key to Salt screening result: (+) shows that a crystalline salt was formed; (−) physical mixtures; conditions: for Polymorph obtained in salt screening: XRPD; for Salt screening result: slurry 50° C. then 25° C.
Description: About 45 mg was added to a suitable solvent and different equivalents of acids were added under stirring at 50° C. for about 2 hours and then at 25° C. for at least 32 hours. Ethanol, acetone, and ACN were used as screening solvents. When no precipitation was obtained or only a few solids were obtained, the solutions were placed at 5° C. for crystallization.
(§1) Obtained suspensions were taken out and centrifuged. Solids obtained was analysed by XRPD. Salts with high or medium crystallinity were further characterized (see Table 5).

[3] = Hygroscopicity (water uptake) of salt hits; format: physicochemical; conditions: salt screening sample; for Hygroscopicity: grade in words
From the text: (§2) According to the salt screening results (see Table 4), totally 19 potential salt hits were identified. All the potential salt hits were further investigated by Differential Scanning Calorimetry (DSC), Thermogravimetric analysis (TGA), H-NMR, Ion chromatography (IC), Karl Fischer titration (KF), and Polarized Light Microscopy (PLM) to confirm their identity and evaluate their physicochemical properties as shown in Table 5 below.

Crystallinity by XRPD = format: physicochemical; conditions: salt screening sample
Description: as §1, §2

[4] = Thermogravimetric analysis (TGA) weight loss; format: physicochemical; conditions: salt screening sample, at the temperature given (80-200° C.)
From the text: as §2

[5] = format: physicochemical; conditions: salt screening sample
From the text: as §2

[6] = organic solvent or mixture, in Acetone
[7] = organic solvent or mixture, in DCM
[8] = organic solvent or mixture, in EtOAc
[9] = organic solvent or mixture, in EtOH
[10] = organic solvent or mixture, in Heptane
[11] = organic solvent or mixture, in IPA
[12] = organic solvent or mixture, in IPAC
[13] = organic solvent or mixture, in MEK
[14] = organic solvent or mixture, in MTBE
[15] = organic solvent or mixture, in MeOH
[16] = organic solvent or mixture, in THF
[17] = organic solvent or mixture, in Toluene

Compound	Polymorph obtained in salt screening ([2]; ACN)	Salt screening result ([2]; ACN)	Polymorph obtained in salt screening ([2]; Acetone)	Salt screening result ([2]; Acetone)	Salt screening result ([2]; EtOH)	Crystallinity (Crystallinity by XRPD)	Weight loss (%) [4] [%]	Polymorph obtained in salt screening ([2]; EtOH)	Water content (% w/w) [5] [% w/w]	other results
COc1cc(C(F)(F)F)c(OC)cc1[C@H]1CCCNC1 [(−)-Di-p-anisoyl-L-tartaric acid salt of (R)-3-(2,5-dimethoxy-4-(trifluoromethyl)phenyl)piperidine (1:1)]										solubility [1, 6]: < 10000 µg/mL; solubility [1, 7]: > 400000 µg/mL; solubility [1, 8]: < 10000 µg/mL; solubility [1, 9]: 25000 µg/mL; solubility [1, 10]: < 10000 µg/mL; solubility [1, 11]: < 10000 µg/mL; solubility [1, 12]: < 10000 µg/mL; solubility [1, 13]: < 10000 µg/mL; solubility [1, 14]: < 10000 µg/mL; solubility [1, 15]: 40000 µg/mL; solubility [1, 16]: 45000 µg/mL; solubility [1, 17]: < 10000 µg/mL; solubility ([1]; in Water): < 5000 µg/mL
CC(=O)O.COc1cc(C(F)(F)F)c(OC)cc1[C@@H]1CCCNC1 [Acetate salt Polymorph A]	Polymorph A	+	Polymorph A	+	Clear solution	High	0.2			Hygroscopicity [3]: None
COc1cc(C(F)(F)F)c(OC)cc1[C@@H]1CCCNC1.C[C@@H](O)C(=O)O [D-lactate salt Polymorph A]		Clear solution		Thin suspension	+	High		Polymorph A		
COc1cc(C(F)(F)F)c(OC)cc1[C@@H]1CCCNC1.COc1cc(C(F)(F)F)c(OC)cc1[C@@H]1CCCNC1.O=C(O)C(O)C(O)C(=O)O [Hemi L-tartrate salt Polymorph A]	Polymorph A	+	Polymorph A	+	+	Medium	4.0	Polymorph A		
COc1cc(C(F)(F)F)c(OC)cc1[C@@H]1CCCNC1.COc1cc(C(F)(F)F)c(OC)cc1[C@@H]1CCCNC1.O=C(O)/C=C/C(=O)O [Hemi-fumarate salt Polymorph A]						Medium	4.8		5.5	
COc1cc(C(F)(F)F)c(OC)cc1[C@@H]1CCCNC1.COc1cc(C(F)(F)F)c(OC)cc1[C@@H]1CCCNC1.O=C(O)/C=C/C(=O)O [Hemi-fumarate salt Polymorph B]						Medium	9.4		9.3	
COc1cc(C(F)(F)F)c(OC)cc1[C@@H]1CCCNC1.COc1cc(C(F)(F)F)c(OC)cc1[C@@H]1CCCNC1.O=C(O)CCC(=O)O [Hemi-succinate salt Polymorph B]	Polymorph A	+	Polymorph A	+	+	Medium	4.8	Polymorph A		Hygroscopicity (water uptake % w/w) [3]: (~1.8%) % w/w; Hygroscopicity [3]: Hygroscopic
COc1cc(C(F)(F)F)c(OC)cc1[C@@H]1CCCNC1.N[C@@H](CC(=O)O)C(=O)O [L-aspartate salt Polymorph A]	Polymorph A	+		−	+	High	3.9	Polymorph A	7.0	Hygroscopicity (water uptake % w/w) [3]: (~4.3%) % w/w; Hygroscopicity [3]: Hygroscopic
COc1cc(C(F)(F)F)c(OC)cc1[C@@H]1CCCNC1.N[C@@H](CCC(=O)O)C(=O)O [L-glutamate salt Polymorph A]						Low	4.8		8.6	
COc1cc(C(F)(F)F)c(OC)cc1[C@@H]1CCCNC1.N[C@@H](CCC(=O)O)C(=O)O [L-glutamate salt Polymorph B]						Medium	6.6		6.9	
COc1cc(C(F)(F)F)c(OC)cc1[C@@H]1CCCNC1.N[C@@H](CCC(=O)O)C(=O)O [L-glutamate salt Polymorph C]						High	6.3		8.7	
COc1cc(C(F)(F)F)c(OC)cc1[C@@H]1CCCNC1.C[C@H](O)C(=O)O [L-lactate salt Polymorph A]	Polymorph A	+		Thin suspension	Clear solution	High	4.9		5.1	Hygroscopicity [3]: None
COc1cc(C(F)(F)F)c(OC)cc1[C@@H]1CCCNC1.O=C(O)/C=C/C(=O)O [Mono-fumarate salt Polymorph C]	Polymorph C	+	Polymorph C	+	+	Medium	0.6	Polymorph C		Hygroscopicity (water uptake % w/w) [3]: (~0.2%) % w/w
COc1cc(C(F)(F)F)c(OC)cc1[C@@H]1CCCNC1.O=P(O)(O)O [Phosphate salt Polymorph A]		Hazy solution	Polymorph A	+	Clear solution	Medium	0.7			
COc1cc(C(F)(F)F)c(OC)cc1[C@@H]1CCCNC1.O=S(=O)(O)O [Sulfate salt Polymorph A]	Polymorph A	+	Polymorph A	+	+	High	8.2	Polymorph A		
COc1cc(C(F)(F)F)c(OC)cc1[C@@H]1CCCNC1 [drawing 39, (−)-Di-p-anisoyl-L-tartaric acid salt of (S)-3-(2,5-dimethoxy-4-(trifluoromethyl)phenyl)piperidine (1:1)]										solubility ([1]; organic solvent or mixture, in 2-MeTHF): 50000 µg/mL; solubility ([1]; organic solvent or mixture, in ACN): 12000 µg/mL; solubility [1, 6]: < 10000 µg/mL; solubility [1, 7]: < 10000 µg/mL; solubility [1, 8]: < 10000 µg/mL; solubility [1, 9]: 12000 µg/mL; solubility [1, 10]: < 10000 µg/mL; solubility [1, 11]: < 10000 µg/mL; solubility [1, 12]: < 10000 µg/mL; solubility [1, 13]: < 10000 µg/mL; solubility [1, 14]: < 10000 µg/mL; solubility [1, 15]: 30000 µg/mL; solubility [1, 16]: 50000 µg/mL; solubility [1, 17]: < 10000 µg/mL; solubility ([1]; in Water): < 5000 µg/mL
Citric acid		Clear solution		Clear solution	Clear solution					
Gentisic acid		Clear solution		Clear solution	Clear solution					
Glutamic acid	Polymorph C	+		+	+			Polymorph A		
